Reference: PubChem BioAssay (NCI)
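Abbreviation: GI50, concentration required for 50% inhibition of growth. TGI marks complete inhibition of growth.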

Legend:
Test in all cases: NCI tumour cell line growth inhibition, 384-well format
786-0 renal = tested on: 786-0 renal
A498 renal = tested on: A498 renal
A549 NSCLC = tested on: A549 NSCLC
ACHN renal = tested on: ACHN renal
BT-549 breast = tested on: BT-549 breast
CAKI-1 renal = tested on: CAKI-1 renal
CCRF-CEM leukemia = tested on: CCRF-CEM leukemia
DU-145 prostate = tested on: DU-145 prostate
EKVX NSCLC = tested on: EKVX NSCLC
HCT-116 colon = tested on: HCT-116 colon
HCT-15 colon = tested on: HCT-15 colon
HL-60(TB) leukemia = tested on: HL-60(TB) leukemia
HOP-62 NSCLC = tested on: HOP-62 NSCLC
HOP-92 NSCLC = tested on: HOP-92 NSCLC
HS 578T breast = tested on: HS 578T breast
HT29 colon = tested on: HT29 colon
IGROV1 ovarian = tested on: IGROV1 ovarian
K-562 leukemia = tested on: K-562 leukemia
KM12 colon = tested on: KM12 colon
LOX IMVI melanoma = tested on: LOX IMVI melanoma
M14 melanoma = tested on: M14 melanoma
MALME-3M melanoma = tested on: MALME-3M melanoma
MCF7 breast = tested on: MCF7 breast
MDA-MB-231 breast = tested on: MDA-MB-231 breast
MDA-MB-435 melanoma = tested on: MDA-MB-435 melanoma
MDA-MB-468 breast = tested on: MDA-MB-468 breast
MOLT-4 leukemia = tested on: MOLT-4 leukemia
NCI-H226 lung = tested on: NCI-H226 lung
NCI-H23 lung = tested on: NCI-H23 lung
NCI-H322M lung = tested on: NCI-H322M lung
NCI-H522 lung = tested on: NCI-H522 lung
NCI/ADR-RES ovarian = tested on: NCI/ADR-RES ovarian
OVCAR-3 ovarian = tested on: OVCAR-3 ovarian
OVCAR-4 ovarian = tested on: OVCAR-4 ovarian
OVCAR-5 ovarian = tested on: OVCAR-5 ovarian
OVCAR-8 ovarian = tested on: OVCAR-8 ovarian
PC-3 prostate = tested on: PC-3 prostate
RPMI-8226 leukemia = tested on: RPMI-8226 leukemia
RXF 393 renal = tested on: RXF 393 renal
SF-268 CNS = tested on: SF-268 CNS
SF-295 CNS = tested on: SF-295 CNS
SF-539 CNS = tested on: SF-539 CNS
SK-MEL-2 melanoma = tested on: SK-MEL-2 melanoma
SK-MEL-28 melanoma = tested on: SK-MEL-28 melanoma
SK-OV-3 ovarian = tested on: SK-OV-3 ovarian
SN12C renal = tested on: SN12C renal
SNB-19 CNS = tested on: SNB-19 CNS
SNB-75 CNS = tested on: SNB-75 CNS
SW-620 colon = tested on: SW-620 colon
T-47D breast = tested on: T-47D breast
TK-10 renal = tested on: TK-10 renal
U251 glioblastoma = tested on: U251 glioblastoma
UACC-257 melanoma = tested on: UACC-257 melanoma
UACC-62 melanoma = tested on: UACC-62 melanoma
UO-31 renal = tested on: UO-31 renal

CN(N=O)C(=O)N[C@@H](C=O)[C@@H](O)[C@H](O)[C@H](O)CO
GI50 ([…]-0 renal): > 100 µM
TGI (786-0 renal): > 100 µM
GI50 (A498 renal): > 100 µM
TGI (A498 renal): > 100 µM
GI50 (A549 NSCLC): > 100 µM
TGI (A549 NSCLC): > 100 µM
GI50 (ACHN renal): > 100 µM
TGI (ACHN renal): > 100 µM
GI50 (BT-549 breast): > 100 µM
TGI (BT-549 breast): > 100 µM
GI50 (CAKI-1 renal): > 100 µM
TGI (CAKI-1 renal): > 100 µM
GI50 (CCRF-CEM leukemia): > 100 µM
TGI (CCRF-CEM leukemia): > 100 µM
GI50 (DU-145 prostate): > 100 µM
TGI (DU-145 prostate): > 100 µM
GI50 (EKVX NSCLC): > 100 µM
TGI (EKVX NSCLC): > 100 µM
GI50 (HCT-116 colon): > 100 µM
TGI (HCT-116 colon): > 100 µM
GI50 (HCT-15 colon): > 100 µM
TGI (HCT-15 colon): > 100 µM
GI50 (HL-60(TB) leukemia): > 100 µM
TGI (HL-60(TB) leukemia): > 100 µM
GI50 (HOP-62 NSCLC): > 100 µM
TGI (HOP-62 NSCLC): > 100 µM
GI50 (HOP-92 NSCLC): > 100 µM
TGI (HOP-92 NSCLC): > 100 µM
GI50 (HS 578T breast): > 100 µM
TGI (HS 578T breast): > 100 µM
GI50 (HT29 colon): > 100 µM
TGI (HT29 colon): > 100 µM
GI50 (IGROV1 ovarian): > 100 µM
TGI (IGROV1 ovarian): > 100 µM
GI50 (K-562 leukemia): > 100 µM
TGI (K-562 leukemia): > 100 µM
GI50 (KM12 colon): > 100 µM
TGI (KM12 colon): > 100 µM
GI50 (LOX IMVI melanoma): > 100 µM
TGI (LOX IMVI melanoma): > 100 µM
GI50 (M14 melanoma): > 100 µM
TGI (M14 melanoma): > 100 µM
GI50 (MALME-3M melanoma): > 100 µM
TGI (MALME-3M melanoma): > 100 µM
GI50 (MCF7 breast): > 100 µM
TGI (MCF7 breast): > 100 µM
GI50 (MDA-MB-231 breast): > 100 µM
TGI (MDA-MB-231 breast): > 100 µM
GI50 (MDA-MB-435 melanoma): > 100 µM
TGI (MDA-MB-435 melanoma): > 100 µM
GI50 (MDA-MB-468 breast): > 100 µM
TGI (MDA-MB-468 breast): > 100 µM
GI50 (MOLT-4 leukemia): > 100 µM
TGI (MOLT-4 leukemia): > 100 µM
GI50 (NCI-H226 lung): > 100 µM
TGI (NCI-H226 lung): > 100 µM
GI50 (NCI-H23 lung): > 100 µM
TGI (NCI-H23 lung): > 100 µM
GI50 (NCI-H322M lung): > 100 µM
TGI (NCI-H322M lung): > 100 µM
GI50 (NCI-H522 lung): > 100 µM
TGI (NCI-H522 lung): > 100 µM
GI50 (NCI/ADR-RES ovarian): > 100 µM
TGI (NCI/ADR-RES ovarian): > 100 µM
GI50 (OVCAR-3 ovarian): > 100 µM
TGI (OVCAR-3 ovarian): > 100 µM
GI50 (OVCAR-4 ovarian): > 100 µM
TGI (OVCAR-4 ovarian): > 100 µM
GI50 (OVCAR-5 ovarian): > 100 µM
TGI (OVCAR-5 ovarian): > 100 µM
GI50 (OVCAR-8 ovarian): > 100 µM
TGI (OVCAR-8 ovarian): > 100 µM
GI50 (PC-3 prostate): > 100 µM
TGI (PC-3 prostate): > 100 µM
GI50 (RPMI-8226 leukemia): > 100 µM
TGI (RPMI-8226 leukemia): > 100 µM
GI50 (RXF 393 renal): > 100 µM
TGI (RXF 393 renal): > 100 µM
GI50 (SF-268 CNS): > 100 µM
TGI (SF-268 CNS): > 100 µM
GI50 (SF-295 CNS): > 100 µM
TGI (SF-295 CNS): > 100 µM
GI50 (SF-539 CNS): > 100 µM
TGI (SF-539 CNS): > 100 µM
GI50 (SK-MEL-2 melanoma): > 100 µM
TGI (SK-MEL-2 melanoma): > 100 µM
GI50 (SK-MEL-28 melanoma): > 100 µM
TGI (SK-MEL-28 melanoma): > 100 µM
GI50 (SK-OV-3 ovarian): > 100 µM
TGI (SK-OV-3 ovarian): > 100 µM
GI50 (SN12C renal): > 100 µM
TGI (SN12C renal): > 100 µM
GI50 (SNB-19 CNS): > 100 µM
TGI (SNB-19 CNS): > 100 µM
GI50 (SNB-75 CNS): > 100 µM
TGI (SNB-75 CNS): > 100 µM
GI50 (SW-620 colon): > 100 µM
TGI (SW-620 colon): > 100 µM
GI50 (T-47D breast): > 100 µM
TGI (T-47D breast): > 100 µM
GI50 (TK-10 renal): > 100 µM
TGI (TK-10 renal): > 100 µM
GI50 (U251 glioblastoma): > 100 µM
TGI (U251 glioblastoma): > 100 µM
GI50 (UACC-257 melanoma): > 100 µM
TGI (UACC-257 melanoma): > 100 µM
GI50 (UACC-62 melanoma): > 100 µM
TGI (UACC-62 melanoma): > 100 µM
GI50 (UO-31 renal): > 100 µM
TGI (UO-31 renal): > 100 µM
